pIC50: −log10 of the molar value.

One assay concerns the target T1, HER-2 kinase (Homo sapiens, UniProt P04626).
T1 construct: Use EGFr/HER-2 chimera/3T3-C7 cell line for this assay; It is expressed in mouse NIH 3T3 clone C7 cells; P00533 (Epidermal growth factor receptor)
The assay is described as follows: Cellular HER-2 kinase assay. The assay is classed as cell-based. To be noted: read-out: Her2 Kinase IC50.

A further assay addresses T2, GST-Flk1 (Mus musculus, UniProt P35918).
T2 construct: GST-Flk1cd purified from sf9 recombinant baculovirus transformation; host or cells: Sf9 (baculovirus)
Kind of assay: GST-FLK-1 bioassay (bio flkGST). The assay is classed as biochemical.

For assay [1], the target named is T3, EGFR (Homo sapiens, UniProt P00533).
T3 construct: A431 cell lysate (SUGEN, Inc.); host or cells: A431
The assay is described as follows: cell EGF assay. The assay is classed as cell-based. The protocol:
Several of the assays described herein are performed in an ELISA (Enzyme-Linked Immunosorbent Sandwich Assay) format (Voller, et al., 1980, “Enzyme-Linked Immunosorbent Assay,” Manual of Clinical Immunology, 2d ed., Rose and Friedman, Am. Soc. Of Microbiology, Washington, D.C., pp. 359-371). The general procedure is as follows: a compound is introduced to cells expressing the test kinase, either naturally or recombinantly, for a selected period of time after which, if the test kinase is a receptor, a ligand known to activate the receptor is added. The cells are lysed and the lysate is transferred to the wells of an ELISA plate previously coated with a specific antibody recognizing the substrate of the enzymatic phosphorylation reaction. Non-substrate components of the cell lysate are washed away and the amount of phosphorylation on the substrate is detected with an antibody specifically recognizing phosphotyrosine compared with control cells that were not contacted with a test compound.

The target of assay [2] is T3, EGFR. The assay is described as follows: EGFR bioassay (bio EGF). The assay is classed as biochemical.
Another assay deals with T4, PDGFR-β (Homo sapiens, UniProt P09619).
T4 construct: host or cells: NIH 3T3
The assay is described as follows: PDGFR bioassay (bio PDGF). It counts as biochemical.

T1 sequence (P04626 720-987 limits assumed): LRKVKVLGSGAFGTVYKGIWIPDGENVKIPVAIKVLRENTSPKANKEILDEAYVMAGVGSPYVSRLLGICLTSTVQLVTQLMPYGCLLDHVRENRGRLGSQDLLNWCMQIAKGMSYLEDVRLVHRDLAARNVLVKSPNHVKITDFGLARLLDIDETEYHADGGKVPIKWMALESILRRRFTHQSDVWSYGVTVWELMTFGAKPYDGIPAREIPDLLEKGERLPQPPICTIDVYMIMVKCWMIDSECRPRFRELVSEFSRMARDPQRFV
T4 sequence (P09619 33-1106): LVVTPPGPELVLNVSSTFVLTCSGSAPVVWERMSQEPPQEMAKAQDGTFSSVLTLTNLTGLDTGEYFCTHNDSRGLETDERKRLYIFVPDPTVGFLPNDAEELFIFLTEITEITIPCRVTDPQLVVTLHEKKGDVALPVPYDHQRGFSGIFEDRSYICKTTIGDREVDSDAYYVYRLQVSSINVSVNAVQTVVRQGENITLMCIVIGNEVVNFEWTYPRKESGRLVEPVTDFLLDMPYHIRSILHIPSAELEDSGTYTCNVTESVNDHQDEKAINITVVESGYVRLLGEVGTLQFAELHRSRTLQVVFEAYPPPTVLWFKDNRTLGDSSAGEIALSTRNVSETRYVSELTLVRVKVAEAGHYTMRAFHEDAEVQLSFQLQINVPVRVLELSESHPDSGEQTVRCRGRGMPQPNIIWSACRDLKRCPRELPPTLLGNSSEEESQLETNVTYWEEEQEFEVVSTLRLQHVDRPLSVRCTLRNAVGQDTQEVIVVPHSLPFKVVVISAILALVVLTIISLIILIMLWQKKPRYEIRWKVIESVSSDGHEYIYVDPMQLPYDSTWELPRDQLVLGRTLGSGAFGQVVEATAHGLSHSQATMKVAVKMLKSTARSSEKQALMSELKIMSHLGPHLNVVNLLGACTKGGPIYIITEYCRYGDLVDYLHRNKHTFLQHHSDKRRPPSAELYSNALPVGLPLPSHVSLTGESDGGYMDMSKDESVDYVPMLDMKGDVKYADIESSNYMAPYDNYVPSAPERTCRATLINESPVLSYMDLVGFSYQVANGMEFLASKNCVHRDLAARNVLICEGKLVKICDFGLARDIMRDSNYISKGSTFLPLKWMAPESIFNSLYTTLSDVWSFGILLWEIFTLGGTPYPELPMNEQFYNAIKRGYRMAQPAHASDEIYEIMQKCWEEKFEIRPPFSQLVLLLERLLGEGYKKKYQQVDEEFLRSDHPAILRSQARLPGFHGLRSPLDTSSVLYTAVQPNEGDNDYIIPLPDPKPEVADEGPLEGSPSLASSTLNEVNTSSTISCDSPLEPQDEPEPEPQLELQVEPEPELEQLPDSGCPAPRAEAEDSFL
T2 sequence (P35918 784-1345 limits assumed): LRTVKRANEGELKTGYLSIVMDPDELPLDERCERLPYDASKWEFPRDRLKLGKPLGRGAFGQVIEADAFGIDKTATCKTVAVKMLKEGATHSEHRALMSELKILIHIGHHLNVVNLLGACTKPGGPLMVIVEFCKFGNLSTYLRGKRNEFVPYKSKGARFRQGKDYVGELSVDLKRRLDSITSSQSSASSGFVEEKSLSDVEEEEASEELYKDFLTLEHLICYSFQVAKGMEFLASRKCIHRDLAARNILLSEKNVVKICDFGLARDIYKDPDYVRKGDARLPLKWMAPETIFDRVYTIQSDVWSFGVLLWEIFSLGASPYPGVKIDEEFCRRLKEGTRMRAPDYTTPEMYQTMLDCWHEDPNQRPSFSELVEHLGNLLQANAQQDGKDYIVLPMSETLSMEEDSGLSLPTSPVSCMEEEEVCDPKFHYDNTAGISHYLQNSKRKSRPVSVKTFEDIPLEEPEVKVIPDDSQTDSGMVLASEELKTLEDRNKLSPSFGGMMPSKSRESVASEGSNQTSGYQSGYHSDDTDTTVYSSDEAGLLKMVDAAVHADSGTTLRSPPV
T3 sequence (P00533 25-1210): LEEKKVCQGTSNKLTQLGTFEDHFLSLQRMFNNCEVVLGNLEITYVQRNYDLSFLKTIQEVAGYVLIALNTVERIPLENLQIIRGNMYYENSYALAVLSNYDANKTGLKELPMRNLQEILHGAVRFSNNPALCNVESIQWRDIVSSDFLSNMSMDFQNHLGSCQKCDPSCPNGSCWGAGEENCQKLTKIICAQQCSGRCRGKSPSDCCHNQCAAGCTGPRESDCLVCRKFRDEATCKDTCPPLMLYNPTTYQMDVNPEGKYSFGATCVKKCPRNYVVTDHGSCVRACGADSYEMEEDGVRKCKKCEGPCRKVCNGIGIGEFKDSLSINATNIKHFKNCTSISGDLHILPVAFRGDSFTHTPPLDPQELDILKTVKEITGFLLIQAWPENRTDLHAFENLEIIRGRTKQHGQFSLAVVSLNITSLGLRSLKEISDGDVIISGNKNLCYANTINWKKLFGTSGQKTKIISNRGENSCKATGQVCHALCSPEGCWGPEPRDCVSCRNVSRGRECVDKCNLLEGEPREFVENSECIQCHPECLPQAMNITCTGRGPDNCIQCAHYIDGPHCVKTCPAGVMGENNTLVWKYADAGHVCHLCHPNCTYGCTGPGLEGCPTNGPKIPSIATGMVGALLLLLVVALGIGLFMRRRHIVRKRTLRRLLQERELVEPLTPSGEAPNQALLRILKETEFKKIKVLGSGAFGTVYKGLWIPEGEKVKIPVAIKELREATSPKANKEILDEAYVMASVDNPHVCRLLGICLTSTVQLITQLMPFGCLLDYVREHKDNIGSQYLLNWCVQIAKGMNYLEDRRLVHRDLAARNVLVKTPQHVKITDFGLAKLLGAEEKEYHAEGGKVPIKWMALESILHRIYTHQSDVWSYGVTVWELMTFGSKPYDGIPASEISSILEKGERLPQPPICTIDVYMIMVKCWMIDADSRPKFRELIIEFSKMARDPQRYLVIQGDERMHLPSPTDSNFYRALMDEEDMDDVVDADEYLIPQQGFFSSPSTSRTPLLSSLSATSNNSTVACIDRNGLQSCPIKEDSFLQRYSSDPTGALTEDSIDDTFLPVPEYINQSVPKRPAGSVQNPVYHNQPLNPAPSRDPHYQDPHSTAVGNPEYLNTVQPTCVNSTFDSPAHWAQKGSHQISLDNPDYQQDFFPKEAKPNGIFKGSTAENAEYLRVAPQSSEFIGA
Protocol for PDGFR-β: Corning 96-well Elisa plates
28D4C10 monoclonal anti-PDGFR antibody (SUGEN, Inc.).
Blocking Buffer (same as for EGFR bioassay).
PDGFR-β expressing NIH 3T3 cell lysate (SUGEN, Inc.).
Kinase buffer phosphorylation mix: for 10 ml, mix 250 μl 1M TRIS, 200 μl 5M NaCl, 100 μl 1M MnCl2 and 50 μl 100 mM Triton X-100 in enough dH2O to make 10 ml.
NUNC 96-well V bottom polypropylene plates.
Rabbit polyclonal anti-phosphotyrosine serum (SUGEN, Inc.).
Goat anti-rabbit IgG peroxidase conjugate (Biosource Cat. No. ALI0404).
Hydrogen peroxide, 30% solution.
Coat Corning 96 well ELISA plates with 0.5 μg 28D4C10 in 100 μl PBS per well, store overnight at 4° C.
Remove unbound 28D4C10 from wells by inverting plate to remove liquid. Wash 1×with dH2O. Pat the plate on a paper towel to remove excess liquid.
Add 150 μl of Blocking Buffer to each well. Incubate for 30 min. at room temperature with shaking.
Wash plate 3×with deionized water, then once with TBST. Pat plate on a paper towel to remove excess liquid and bubbles.
Dilute lysate in HNTG (10 μg lysate/100 μl HNTG).
Add 100 μl of diluted lysate to each well. Shake at room temperature for 60 min.
Wash plates as described in Step 4.
Add 80 μl working kinase buffer mix to ELISA plate containing captured PDGFR.
Add 10 μl diluted test compound to ELISA plate. To control wells, add 10 μl TBS+10% DMSO. Incubate with shaking for 30 minutes at room temperature.
Add 10 μl ATP directly to all wells except negative control well (final well volume should be approximately 100 μl with 20 μM ATP in each well.) Incubate 30 minutes with shaking.
Stop reaction by adding 10 μl of EDTA solution to each well.
Wash 4×with deionized water, twice with TBST.
Add 100 μl anti-phosphotyrosine (1:3000 dilution in TBST) per well. Incubate with shaking for 30-45 min. at room temperature.
Incubate with shaking for 30 min. at room temperature.
Add 100 μl of ABTS/H2O2 solution to each well.
Incubate 10 to 30 minutes with shaking. Remove any bubbles.
If necessary stop reaction with the addition of 100 μl 0.2 M HCl per well.

With `CCN(CC)CCNC(=O)c1[nH]c(/C=C2\C(=O)Nc3cc(-c4cccnc4)ccc32)c2c1CCCC2` [Example 20, 3-(2-Oxo-6-pyridin-3-yl-1,2-dihydroindol-3-ylidenemethyl)-4,5,6,7-tetrahydro-2H-isoindole-1-carboxylic acid (2-diethylaminoethyl)amide], the pIC50 was 5.10 at HER-2 kinase, 4.94 at GST-Flk1, 4.39 against EGFR [1] and < 4.00 at EGFR [2].

As to `CCN(CC)CCNC(=O)c1c(C)[nH]c(/C=C2\C(=O)Nc3cc(-c4ccccc4)ccc32)c1C` [Example 59, 2,4-Dimethyl-5-(2-oxo-6-phenyl-1,2-dihydroindol-3-ylidenemethyl)-1H-pyrrole-3-carboxylic acid (2-diethylaminoethyl)amide], the pIC50 on HER-2 kinase is < 4.00; on PDGFR-β, > 6.11; on EGFR [1], < 4.00; on EGFR [2], < 4.00.

Regarding `CCN(CC)CCCNC(=O)c1[nH]c(/C=C2\C(=O)Nc3ccc(Br)cc32)c2c1CCCC2` [Example 18, 3-(5-Bromo-2-oxo-1,2-dihydroindol-3-ylidenemethyl)-4,5,6,7-tetrahydro-2H-isoindole-1-carboxylic acid (3-diethylaminopropyl)amide], the pIC50 at HER-2 kinase was 5.30; against GST-Flk1, 5.57; on EGFR [1] it was 5.03; at EGFR [2], 5.59.

In the case of `COc1ccccc1-c1ccc2c(c1)NC(=O)/C2=C\c1[nH]c(C)c(C(=O)NCCN(C)C)c1-c1ccccc1` [Example 45, 5-[6-(2-Methoxy-phenyl)-2-oxo-1,2-dihydroindol-3-ylidenemethyl]-2-methyl-4-phenyl-1H-pyrrole-3-carboxylic acid (2-dimethylamino-ethyl)amide], the figures for the pIC50 at GST-Flk1 and at EGFR [1] were 5.77 and 4.52, respectively.

For the molecule `O=C1Nc2ccc(Br)cc2/C1=C/c1[nH]c(C(=O)NCCCN2CCCC2)c2c1CCCC2` [Example 19, 3-(5-Bromo-2-oxo-1,2-dihydroindol-3-ylidenemethyl)-4,5,6,7-tetrahydro-2H-isoindole-1-carboxylic acid (3-pyrrolidin-1-ylpropyl)amide], the pIC50 at HER-2 kinase was 5.08; against GST-Flk1 it was 5.12; against EGFR [1] it was 4.47; against EGFR [2], 5.16.

In the case of `COc1ccc2c(c1)NC(=O)/C2=C\c1[nH]c(C(=O)NCCCN2CCCC2)c(C)c1C(=O)c1ccccc1` [Example 26, 4-Benzoyl-5-(6-methoxy-2-oxo-1,2-dihydroindol-3-ylidenemethyl)-3-methyl-1H-pyrrole-2-carboxylic acid (3-pyrrolidin-1-ylpropyl)amide], the negative-log IC50 (pIC50) at HER-2 kinase is 5.00; against PDGFR-β, 4.17; on GST-Flk1, 4.80; against EGFR [2] it was 4.46.

Take `CCc1ccc(-c2ccc3c(c2)NC(=O)/C3=C\c2[nH]c(C)c(C(=O)NCCN3CCCC3)c2C)cc1` [Example 77, 5-[6-(4-Ethyl-phenyl)-2-oxo-1,2-dihydroindol-3-ylidenemethyl]-2,4-dimethyl-1H-pyrrole-3-carboxylic acid (2-pyrrolidin-1-yl-ethyl)amide]: the pIC50 at HER-2 kinase is < 4.00; against PDGFR-β, 4.60; against GST-Flk1, 6.31; against EGFR [2] it was < 4.00.

For `Cc1[nH]c(/C=C2\C(=O)Nc3cc(-c4ccccc4)ccc32)c(C)c1C(=O)NCCN(C)C` [Example 49, 2,4-Dimethyl-5-(2-oxo-6-phenyl-1,2-dihydroindol-3-ylidenemethyl)-1H-pyrrole-3-carboxylic acid (2-dimethylamino-ethyl)amide], at EGFR [1], the pIC50 was 4.36.

For the molecule `CC(C)c1[nH]c(/C=C2\C(=O)Nc3ccc(Br)cc32)c(-c2ccccc2)c1C(=O)NCCCN1CCN(C)CC1` [Example 40, 5-(5-Bromo-2-oxo-1,2-dihydroindol-3-ylidenemethyl)-2-isopropyl-4-phenyl-1H-pyrrole-3-carboxylic acid [3-(4-methyl-piperazin-1-yl)-propyl]amide], the negative-log IC50 (pIC50) at HER-2 kinase was 5.20; against PDGFR-β it was 5.10; against GST-Flk1 it was 5.35; at EGFR [2] it was 5.19.

For the molecule `Cc1c(C(=O)NCCCN2CCCC2)[nH]c(/C=C2\C(=O)Nc3ccccc32)c1C(=O)c1ccccc1` [Example 23, 4-Benzoyl-3-methyl-5-(2-oxo-1,2-dihydroindol-3-ylidenemethyl)-1H-pyrrole-2-carboxylic acid (3-pyrrolidin-1-ylpropyl)amide], the pIC50 on HER-2 kinase is 5.39; on PDGFR-β it was < 4.00; against GST-Flk1, < 4.70; against EGFR [2], 4.44.

Turning to `CC(=O)c1c(/C=C2\C(=O)Nc3ccc(Br)cc32)[nH]c(C(=O)NCCN2CCCC2)c1C` [Example 35, 4-Acetyl-5-(5-bromo-2-oxo-1,2-dihydroindol-3-ylidenemethyl)-3-methyl-1H-pyrrole-2-carboxylic acid (2-pyrrolidin-1-yl-ethyl)amide], the negative logarithm of the IC50 (pIC50) is 4.27 on HER-2 kinase, < 4.00 against PDGFR-β, < 4.70 against GST-Flk1 and 4.09 on EGFR [2].

Take `Cc1[nH]c(/C=C2\C(=O)Nc3ccc(Br)cc32)c(C)c1C(=O)NCc1ccncc1` [Example 74, 5-(5-Bromo-2-oxo-1,2-dihydroindol-3-ylidenemethyl)-2,4-dimethyl-1H-pyrrole-3-carboxylic acid (pyridin-4-ylmethyl)amide]: the pIC50 on HER-2 kinase was < 4.00; against PDGFR-β it was 7.05; against GST-Flk1, 5.92; at EGFR [2] it was 4.33.

Molecule `Cc1[nH]c(/C=C2\C(=O)Nc3ccc(Cl)cc32)c(C)c1C(=O)NCCN(C)C` [Example 50, 5-(5-Chloro-2-oxo-1,2-dihydroindol-3-ylidenemethyl)-2,4-dimethyl-1H-pyrrole-3-carboxylic acid (2-dimethylamino-ethyl)amide] gave a pIC50 against EGFR [1] of 4.69.

In the case of `COc1ccc(-c2ccc3c(c2)NC(=O)/C3=C\c2[nH]c(C)c(C(=O)NCCN3CCCC3)c2C)c(OC)c1` [Example 78, 5-[6-(2,4-Dimethoxy-phenyl)-2-oxo-1,2-dihydroindol-3-ylidenemethyl]-2,4-dimethyl-1H-pyrrole-3-carboxylic acid (2-pyrrolidin-1-yl-ethyl)amide], the negative-log IC50 (pIC50) is 5.37 on HER-2 kinase, 4.15 on PDGFR-β, 5.71 at GST-Flk1 and 5.03 at EGFR [2].

Turning to `CC(=O)c1c(/C=C2\C(=O)Nc3ccc(Br)cc32)[nH]c(C(=O)NCCCO)c1C` [Example 32, 4-Acetyl-5-(5-bromo-2-oxo-1,2-dihydroindol-3-ylidenemethyl)-3-methyl-1H-pyrrole-2-carboxylic acid (3-hydroxy-propyl)amide], the pIC50 on HER-2 kinase was < 4.00; against PDGFR-β, 5.23; against GST-Flk1, 4.34; at EGFR [2] it was < 4.00.

With `COc1ccccc1-c1ccc2c(c1)NC(=O)/C2=C\c1[nH]c(C)c(C(=O)NCCN(C)C)c1C` [Example 54, 5-[6-(2-Methoxy-phenyl)-2-oxo-1,2-dihydroindol-3-ylidenemethyl)-2,4-dimethyl-1H-pyrrole-3-carboxylic acid (2-dimethylamino-ethyl)amide], the negative-log IC50 (pIC50) was 5.15 at HER-2 kinase, 5.70 at GST-Flk1, 5.01 against EGFR [1] and 4.62 at EGFR [2].

For `Cc1cc(C(=O)NCCCN2CCCC2)[nH]c1/C=C1\C(=O)Nc2ccc(Br)cc21` [Example 6, 5-(5-Bromo-2-oxo-1,2-dihydroindol-3-ylidenemethyl)-4-methyl-1H-pyrrole-2-carboxylic acid (3-pyrrolidin-1-ylpropyl)amide], the pIC50 on HER-2 kinase is 5.61; at GST-Flk1, 5.39; against EGFR [1], 5.11; on EGFR [2] it was 5.49.

With `CCN(CC)CCCNC(=O)c1[nH]c(/C=C2\C(=O)Nc3ccc(Br)cc32)c(C(=O)c2ccccc2)c1C` [Example 21, 4-Benzoyl-5-(5-bromo-2-oxo-1,2-dihydroindol-3-ylidenemethyl)-3-methyl-1H-pyrrole-2-carboxylic acid (3-diethylaminopropyl)amide], the pIC50 at HER-2 kinase was 4.56; at PDGFR-β it was < 4.00; at GST-Flk1 it was 5.14; on EGFR [2], 4.39.

With `CCN(CC)CCCNC(=O)c1[nH]c(/C=C2\C(=O)Nc3ccc(Br)cc32)cc1C` [Example 13, 5-(5-Bromo-2-oxo-1,2-dihydroindol-3-ylidenemethyl)-3-methyl-1H-pyrrole-2-carboxylic acid (3-diethylaminopropyl)amide], the pIC50 was 5.58 on HER-2 kinase, 4.09 against PDGFR-β, < 4.70 against GST-Flk1 and 5.09 at EGFR [2].

With `Cc1[nH]c(/C=C2\C(=O)Nc3ccc(-c4ccccc4)cc32)c(C)c1C(=O)NCCCN(C)C` [Example 66, 2,4-Dimethyl-5-(2-oxo-5-phenyl-1,2-dihydroindol-3-ylidenemethyl)-1H-pyrrole-3-carboxylic acid (3-dimethylamino-propyl)amide], the pIC50 was 5.56 on HER-2 kinase, > 7.30 against GST-Flk1, 4.93 against EGFR [1] and < 4.00 at EGFR [2].
